Source: patent US20140024803A1, “18FDG MULTIMERIC POSITRON EMISSION TOMOGRAPHY IMAGING AGENTS” (priority 2012, published 2014)

Experiment: In vitro calcium salt specificity experiment (PET/CT of crystals after incubation and washing)
Type: binding
Settings: 5 mg/mL calcium salts (HA, phosphate, oxalate, carbonate, pyrophosphate), 10 μCi in 100 μL PBS, 20 min at RT, washed, 10 minute static PET/CT scan
Procedure: To determine the selectivity and specificity of ^18FDG amino-Ad-Pam-Monomer for hydroxyapatite (HA), a major mineral component of calcifications and normal bone, over other calcium salts, in the present invention an incubation of equal quantity each of Ca-hydroxyapatite (HA), Ca-pyrophosphate (CPP), Ca-phosphate (CP), Ca-oxalate (CO), and Ca-carbonate (CC) salts with ^18FDG amino-Ad-Pam-Monomer in phosphate buffered saline (PBS) is performed. PET/CT images are acquired after incubation and washing of crystals, ^18FDG amino-Ad-Pam-Monomer has about 5-fold specificity for HA over other calcium salts found in the body and permits PET/CT detection of HA with high sensitivity. However, Na^18F, the Food and Drug Administration approved imaging agent for bone scintigraphy, permits about 1.5 fold specificity for HA over other calcium salts.
In a 96-well plate, 5 mg/mL of hydroxyapatite (HA) or the phosphate, oxalate, carbonate, and pyrophosphate salts of calcium are separately incubated with ^18FDG amino-Ad-Pam-Monomer (10 μCi) in 100 μL PBS for 20 min with continuous vortexing at RT. Crystals are washed 4 times with a 100-fold excess of PBS, centrifuged and mounted on PET/CT and 10 minute static scans are acquired. Similarly, calcium salt binding study is performed with Na^18F in a same condition.

[18F-].[Na+] [Na^18F]
specificity for HA over other calcium salts: about 1.5 fold
